The source of these data is ChEMBL document CHEMBL1139727, “A novel series of imidazo[1,2-a]pyridine derivatives as HIF-1alpha prolyl hydroxylase inhibitors” (Bioorg Med Chem Lett, 2006).

The experiment concerns the target Egl nine homolog 1 (Homo sapiens, UniProt Q9GZT9). In words: Inhibition of human EGLN1.

Each structure is given as a SMILES string. pIC50: −log10 of the molar value. Bounds are passed on as bounds.

Sequence of Egl nine homolog 1 (Q9GZT9 whole entry): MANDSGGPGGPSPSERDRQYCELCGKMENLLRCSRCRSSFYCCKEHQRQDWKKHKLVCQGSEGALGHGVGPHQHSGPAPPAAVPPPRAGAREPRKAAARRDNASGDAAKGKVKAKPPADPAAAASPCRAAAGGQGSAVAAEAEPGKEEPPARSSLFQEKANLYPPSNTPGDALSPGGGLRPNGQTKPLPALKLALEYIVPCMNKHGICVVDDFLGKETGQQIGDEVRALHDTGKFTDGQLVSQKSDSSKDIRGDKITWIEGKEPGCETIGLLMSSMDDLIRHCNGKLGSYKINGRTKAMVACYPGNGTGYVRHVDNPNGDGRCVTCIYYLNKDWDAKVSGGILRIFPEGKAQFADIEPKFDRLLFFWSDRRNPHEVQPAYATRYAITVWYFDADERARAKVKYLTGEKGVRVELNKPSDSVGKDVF

`Cc1cccc(-c2ccc3nc(C(=O)NCC(=O)O)cn3c2)c1`: the negative logarithm of the IC50 (pIC50) (usually the negative decadic logarithm of the IC50, by convention in mol/L) was less than 4.00.
